PubChem BioAssay AID256 (DTP/NCI, 2004)
Toxic doses and inconclusive results are not listed. The calls were made as follows: active = survival T/C of 150% or more; inactive = T/C below 125% in these data.

System: CD2F1 mice, L1210 leukemia ip, survival T/C
Assay: NCI In Vivo Anticancer Drug Screen. Data for tumor model L1210 Leukemia (intraperitoneal) in CD2F1 (CDF1) mice
Settings: endpoint: mean survival time, higher = longer survival
Summary of the method: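 Read-out first: treated-group measurement over vehicle-control measurement, expressed as a ratio. Animals bore a transplanted tumor line and were dosed with compound or vehicle.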

[1] = dose: 0.5 mg/kg/injection, schedule: Q01DX015 (ip), vehicle: saline
[2] = dose: 1.0 mg/kg/injection, schedule: Q01DX015 (ip), vehicle: saline
[3] = dose: 2.0 mg/kg/injection, schedule: Q01DX015 (ip), vehicle: saline
[4] = dose: 100.0 mg/kg/injection, schedule: Q01DX009 (ip), vehicle: saline with Tween-80
[5] = dose: 200.0 mg/kg/injection, schedule: Q01DX009 (ip), vehicle: saline with Tween-80
[6] = dose: 400.0 mg/kg/injection, schedule: Q01DX009 (ip), vehicle: saline with Tween-80
[7] = dose: 25.0 mg/kg/injection, schedule: Q01DX009 (ip), vehicle: saline with Tween-80
[8] = dose: 50.0 mg/kg/injection, schedule: Q01DX009 (ip), vehicle: saline with Tween-80
[9] = dose: 100.0 mg/kg/injection, schedule: Q01DX001 (ip), vehicle: saline with Tween-80
[10] = dose: 200.0 mg/kg/injection, schedule: Q01DX001 (ip), vehicle: saline with Tween-80
[11] = dose: 400.0 mg/kg/injection, schedule: Q01DX001 (ip), vehicle: saline with Tween-80

Measured: T/C

Cc1cc(N(CCOS(C)(=O)=O)CCOS(C)(=O)=O)ccc1N=O
inactive: dose: 0.25 mg/kg/injection, schedule: Q01DX015 (ip), vehicle: saline 119 % of control | [1] 121 % of control | dose: 1.0 mg/kg/injection, schedule: Q01DX010 (ip), vehicle: saline 101 % of control | [2] 116 % of control | [3] 97 % of control

COC1SCCCS1
inactive: dose: 12.5 mg/kg/injection, schedule: Q04DX002 (ip), vehicle: saline with Tween-80 97 % of control | dose: 25.0 mg/kg/injection, schedule: Q04DX002 (ip), vehicle: saline with Tween-80 108 % of control | dose: 50.0 mg/kg/injection, schedule: Q04DX002 (ip), vehicle: saline with Tween-80 105 % of control

CN(C)C1c2ccccc2-c2ccc([N+](=O)[O-])cc21 (stereo not given)
inactive: dose: 50.0 mg/kg/injection, schedule: Q01DX001 (ip), vehicle: carboxymethylcellulose (CMC) 107 % of control | dose: 100.0 mg/kg/injection, schedule: Q01DX001 (ip), vehicle: carboxymethylcellulose (CMC) 101 % of control | dose: 200.0 mg/kg/injection, schedule: Q01DX001 (ip), vehicle: carboxymethylcellulose (CMC) 101 % of control | dose: 400.0 mg/kg/injection, schedule: Q01DX001 (ip), vehicle: carboxymethylcellulose (CMC) 101 % of control

O=S(=O)(/N=C1\C=CC=C\C1=N/S(=O)(=O)c1ccccc1)c1ccccc1
inactive: [4] 95 % of control | [5] 92 % of control | [6] 98 % of control

OC1(CSc2ccccc2)CCCCC1
inactive: dose: 12.5 mg/kg/injection, schedule: Q01DX009 (ip), vehicle: saline with Tween-80 98 % of control | [7] 101 % of control | [8] 102 % of control | [4] 102 % of control | [5] 104 % of control | [6] 101 % of control

CSc1nc(N)cc(=O)[nH]1
inactive: dose: 50.0 mg/kg/injection, schedule: Q01DX001 (ip), vehicle: Klucel (hydroxypropylcellulose) (HPC) 98 % of control | dose: 100.0 mg/kg/injection, schedule: Q01DX001 (ip), vehicle: Klucel (hydroxypropylcellulose) (HPC) 96 % of control | dose: 200.0 mg/kg/injection, schedule: Q01DX001 (ip), vehicle: Klucel (hydroxypropylcellulose) (HPC) 86 % of control

NC(N)=NC1CCCC1
inactive: [7] 102 % of control | dose: 25.0 mg/kg/injection, schedule: Q04DX003 (ip), vehicle: saline 100 % of control | [8] 100 % of control | dose: 50.0 mg/kg/injection, schedule: Q04DX003 (ip), vehicle: saline 91 % of control | dose: 100.0 mg/kg/injection, schedule: Q04DX003 (ip), vehicle: saline 100 % of control

CSc1ccc(C)cn1 (tested in a mixture with another compound)
inactive: [4] 100 % of control | [5] 97 % of control

Cc1ccc(S(=O)(=O)OC(c2ccccc2)C(F)(F)F)cc1 (stereo not given)
inactive: [9] 100 % of control | [10] 103 % of control | [11] 94 % of control

CCCCC(CC(=O)O)c1ccc(Cl)cc1 (stereo not given)
inactive: dose: 100.0 mg/kg/injection, schedule: Q04DX003 (ip), vehicle: saline with Tween-80 95 % of control | dose: 200.0 mg/kg/injection, schedule: Q04DX003 (ip), vehicle: saline with Tween-80 101 % of control

O=C(CC(O)(C(F)(F)F)C(F)(F)F)c1ccc(Br)cc1
inactive: dose: 100.0 mg/kg/injection, schedule: Q01DX009 (ip), vehicle: other 106 % of control | dose: 200.0 mg/kg/injection, schedule: Q01DX009 (ip), vehicle: other 100 % of control | dose: 400.0 mg/kg/injection, schedule: Q01DX009 (ip), vehicle: other 95 % of control

Nc1nc(N)c2nc3c(nc2n1)CCCC3
inactive: [9] 95 % of control | [10] 87 % of control | [11] 87 % of control

CC[C@H]1CN2CCc3cc(OC)c(OC)cc3[C@@H]2C[C@@H]1C[C@H]1NCCc2cc(O)c(OC)cc21
inactive: [1] 107 % of control | [2] 110 % of control | [3] 122 % of control | dose: 8.0 mg/kg/injection, schedule: Q01DX015 (ip), vehicle: saline 115 % of control | dose: 16.0 mg/kg/injection, schedule: Q01DX015 (ip), vehicle: saline 89 % of control

O=c1[nH]c2ccc(Br)cc2c2ccccc12
inactive: dose: 100.0 mg/kg/injection, schedule: Q01DX001 (ip), vehicle: saline 90 % of control | dose: 200.0 mg/kg/injection, schedule: Q01DX001 (ip), vehicle: saline 94 % of control | dose: 400.0 mg/kg/injection, schedule: Q01DX001 (ip), vehicle: saline 100 % of control
